Assay results taken from US5032514A, “Metabolic pathway engineering to increase production of ascorbic acid intermediates” (Genentech, Inc., priority 1988, dated 1991).

What was measured:
5-KDG reductase = assay: induction of 5-keto reductase activity by carbohydrates in LB media; format: cell-based, E. herbicola 21998tkrAΔ3; settings: compound as inducer in LB media
[1] = test system: 2-ketoaldonate reductase [2KR(B)]; assay: induction of 2-keto reductase activity by carbohydrates in LB media; format: cell-based, E. herbicola 21998tkrAΔ3; settings: compound as inducer in LB media
Source text: The fact that idonate was still produced in the tkrA^- mutant led to the discovery of a second 2-ketoaldonate reductase [2KR(B)], encoded by an inducible tkrB gene. This protein can be purified from the tkrAΔ3 strain and the gene has been cloned (see below). Evidence that 2KR(A) and 2KR(B) are in fact different enzymes is based on observed differences in protein sequence, molecular weight on SDS gels, subunit composition, migration on native gels, kinetic parameters, and gene sequence. 2KR(B) activity is inducible in LB media by a variety of carbohydrates which are listed on Table 1. […] 2-keto reductase activity is found widely elsewhere in nature. We have also identified 2-keto aldonate reductase activity in both E. coli MM294 and Corynebacterium sp. ATCC 31090, neither of which is known to be ketogenic nor produce 2-KLG as a natural product.

idonate dehydrogenase = assay: membrane bound idonate dehydrogenase assay (crude membrane fraction)
E. herbicola = assay: growth on sole carbon source in minimal media; format: cell-based
Procedure: Although a large number of potential metabolic routes from glucose exist, IA is likely produced from either 2-KLG or 5-keto-D-gluconate (5-KDG) catalyzed by a stereospecific pyridine nucleotide-linked reductase. Evidence for both the 5-KDG route in Fusarium species (Takagi, Agric. Biol. Chem. 26:719 [1962]) and the 2-KLG route in a variety of microorganisms has been observed (Makeover et al., supra). Shake flask incubations of whole cells of E. herbicola at 11 OD550 containing 12 g/1 of either 2-KLG or 5-KDG were carried out. Approximately 4 g/1 of IA was produced in flasks containing 2-KLG in 40 hours. The total IA and 2-KLG concentration remained constant throughout the bioconversion. […] Furthermore, E. herbicola was grown using either 5-KDG, G, GA, 2-KDG, or 2,5-DKG as the sole carbon source in minimal media. […] Thus the IA produced in E. herbicola into which an expression vector encoding 2,5-DKG reductase has been transferred is derived from 2-KLG catabolism.

tac promoters = assay: modulation of expression level by sequential increases in IPTG; format: cell-based, Erwinia herbicola; settings: for 2-KLG + IA/DKG: fractional weight basis relative to 2,5-DKG
Procedure: Additional experiments were carried out modulating the expression level by sequential increases in IPTG to induce the tac promoters.
In the table below, IPTG is the concentration of isopropylthio-β-galactoside added to the culture medium. Enzyme activity is the sum of the activities of 2,5-DKG reductase and 2-keto aldonate reductase per mg of protein (measured using the Bradford assay, supra). 2-KLG is measured on gram per gram dry cell weight per hour. Finally, the 2-KLG and idonate is measured on a fractional weight basis relative to 2,5-DKG.

gluconate dehydrogenase = assay: membrane bound gluconate dehydrogenase assay (crude membrane fraction); settings: read-out: Ki, competitive inhibition of gluconate dehydrogenase

Row | SMILES | 5 KR Spec. Act. (5-KDG reductase) | 2 KR Spec. Act. [1] | further results
1 | OC[C@@H](O)[C@@H](O)[C@H](O)[C@H](O)CO [D-mannitol] | 0.032 µmol/min/mg | 0.027 µmol/min/mg | –
2 | O=C(O)C(=O)[C@@H](O)[C@H](O)C(=O)CO [2,5-DKG, 2,5-diketo-D-gluconic acid] | 0.103 µmol/min/mg | 0.122 µmol/min/mg | –
3 | O=C(O)C(=O)[C@@H](O)[C@H](O)[C@@H](O)CO [2-KLG, 2-keto-L-gulonic acid] | 0.061 µmol/min/mg | 0.014 µmol/min/mg | Ki (idonate dehydrogenase; read-out: Ki, competitive inhibition of idonate dehydrogenase, crude membrane fraction): 13 mM; growth using compound as the sole carbon source (E. herbicola): did not grow
4 | O=C[C@H](O)[C@@H](O)[C@H](O)[C@H](O)CO [D-glucose] | 0.27 µmol/min/mg | 0.167 µmol/min/mg | –
5 | CC(C)S[C@@H]1O[C@H](CO)[C@H](O)[C@H](O)[C@H]1O [IPTG, isopropylthio-β-galactoside] | – | – | 2-KLG Prod. Rate (tac promoters; [IPTG] 0.001 mM): 0.000 g/g-DCW-Hr; Enzyme Activity (sum of 2,5-DKG reductase and 2-keto aldonate reductase) (tac promoters; [IPTG] 0.001 mM): 0.029 umole/mg-P-min; 2-KLG + IA/DKG (tac promoters; [IPTG] 0.001 mM): 0.000; 2-KLG Prod. Rate (tac promoters; [IPTG] 0.005 mM): 0.004 g/g-DCW-Hr; Enzyme Activity (sum of 2,5-DKG reductase and 2-keto aldonate reductase) (tac promoters; [IPTG] 0.005 mM): 0.051 umole/mg-P-min; 2-KLG + IA/DKG (tac promoters; [IPTG] 0.005 mM): 0.025; 2-KLG Prod. Rate (tac promoters; [IPTG] 0.050 mM): 0.062 g/g-DCW-Hr; Enzyme Activity (sum of 2,5-DKG reductase and 2-keto aldonate reductase) (tac promoters; [IPTG] 0.050 mM): 0.100 umole/mg-P-min; 2-KLG + IA/DKG (tac promoters; [IPTG] 0.050 mM): 0.350; 2-KLG Prod. Rate (tac promoters; [IPTG] 0.500 mM): 0.126 g/g-DCW-Hr; Enzyme Activity (sum of 2,5-DKG reductase and 2-keto aldonate reductase) (tac promoters; [IPTG] 0.500 mM): 0.140 umole/mg-P-min; 2-KLG + IA/DKG (tac promoters; [IPTG] 0.500 mM): 0.530
6 | O=C(O)C(=O)[C@@H](O)[C@H](O)[C@H](O)CO [2-KDG, 2-keto-D-gluconate] | 0.143 µmol/min/mg | 0.045 µmol/min/mg | inhibition of idonate dehydrogenase (idonate dehydrogenase; crude membrane fraction): but not idonate dehydrogenase; Ki (gluconate dehydrogenase): > 10 mM
7 | O=C(O)[C@H](O)[C@@H](O)[C@H](O)[C@@H](O)CO [IA, L-idonic acid] | – | – | Km (idonate dehydrogenase; read-out: apparent Km, idonate dehydrogenase activity, pH 6.0, 25° C.): 20 mM; growth using compound as the sole carbon source (E. herbicola): did not grow
8 | OCC(O)CO [D-glycerol] | 0.035 µmol/min/mg | 0.024 µmol/min/mg | –
9 | O=C(CO)[C@@H](O)[C@H](O)[C@H](O)CO [D-fructose] | 0.032 µmol/min/mg | 0.028 µmol/min/mg | –
10 | O=C(O)[C@H](O)[C@@H](O)[C@H](O)[C@H](O)CO [GA, D-gluconate] | 0.144 µmol/min/mg | 0.020 µmol/min/mg | –
11 | O=C(CO)[C@@H](O)[C@H](O)[C@@H](O)C(=O)O [5-KDG, 5-keto-D-gluconate] | 0.105 µmol/min/mg | 0.119 µmol/min/mg | –
